Counter-ions that a name gives are not always drawn.
Biological target: T1, human IDO1 (Homo sapiens, UniProt P14902)
T1 construct: expressed in transfected cells
Experiment: IDO inhibition assay in HEK293 cells stably expressing human IDO1 (kynurenine production, Ehrlich reagent, absorbance 490 nm)
Type: cell-based
Conditions: 20 hours incubation with compound, 500 nM reference standard = 100% inhibition, read-out: IDO1 HEK Human IC50
Outline: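 HEK293 clones stably expressing human IDO1 (10,000 cells/well, phenol red-free RPMI, 10% FBS) were treated with compound for 20 hours at 37° C. After 0.2% TCA and 30 min at 50° C., kynurenine was read with Ehrlich reagent at 490 nm. IC50 was normalised to DMSO (0%) and 500 nM reference standard (100%).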

T1 sequence (P14902 whole entry): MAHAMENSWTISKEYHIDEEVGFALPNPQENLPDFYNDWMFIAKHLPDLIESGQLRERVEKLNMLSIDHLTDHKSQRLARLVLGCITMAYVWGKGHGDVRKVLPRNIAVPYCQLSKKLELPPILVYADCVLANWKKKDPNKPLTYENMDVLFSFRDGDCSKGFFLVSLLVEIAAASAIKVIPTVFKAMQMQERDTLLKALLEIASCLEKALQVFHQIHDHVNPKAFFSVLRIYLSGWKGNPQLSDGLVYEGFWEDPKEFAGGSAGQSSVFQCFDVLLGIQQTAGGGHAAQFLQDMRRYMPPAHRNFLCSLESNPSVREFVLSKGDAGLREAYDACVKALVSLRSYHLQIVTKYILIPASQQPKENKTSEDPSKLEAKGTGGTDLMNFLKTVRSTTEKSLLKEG

IC50 [nM] | SMILES
142 | Cc1nccc(Nc2cc(-c3ccccc3-c3nnn[nH]3)nc(N(Cc3ccccc3)CC(C)C)c2)n1 [Example 140, 6-(2-(1H-tetrazol-5-yl)phenyl)-N2-benzyl-N2-isobutyl-N4-(2-methylpyrimidin-4-yl)pyridine-2,4-diamine]
6000 | COCCN(c1cc(NC(=O)Nc2ccc(F)cc2)cc(-c2ccccc2-c2nnn[nH]2)n1)C1CCC(F)(F)CC1 [Example 114, 1-(2-(2-(1H-tetrazol-5-yl)phenyl)-6-((4,4-difluorocyclohexyl)(2-methoxyethyl)amino)pyridin-4-yl)-3-(4-fluorophenyl)urea]
9.3 | CC(C)CN(Cc1ccccc1)c1cc(Nc2cccc(OC(F)(F)C(F)F)c2)cc(-c2ccccc2-c2nnn[nH]2)n1 [Example 189, 6-(2-(1H-tetrazol-5-yl)phenyl)-N2-benzyl-N2-isobutyl-N4-(3-(1,1,2,2-tetrafluoroethoxy)phenyl)pyridine-2,4-diamine]
1710 | CCCN(Cc1ccccc1)c1cc(NC(=O)Cc2cnccn2)cc(-c2ccccc2-c2nn[nH]n2)n1 [Example 210, N-(2-(2-(2H-tetrazol-5-yl)phenyl)-6-(benzyl(propyl)amino)pyridin-4-yl)-2-(pyrazin-2-yl)acetamide]
127 | CCCN(Cc1ccccc1)c1cc(NC(=O)Cc2ccc(C)cc2)cc(-c2ccccc2-c2nnn[nH]2)n1 [Example 291]
8.5 | CCCN(Cc1ccccc1)c1cc(NC(=O)Nc2ccc(Cl)cc2F)cc(-c2ccccc2-c2nnn[nH]2)n1 [Example 72, 1-(2-(2-(1H-tetrazol-5-yl)phenyl)-6-(benzyl(propyl)amino)pyridin-4-yl)-3-(4-chloro-2-fluorophenyl)urea, TFA]
594 | CCCN(Cc1ccccc1)c1cc(NC(=O)Nc2ccc(C)cc2)cc(-c2ccccc2C(=O)NS(=O)(=O)C2CC2)n1 [Example 20, 2-(6-(benzyl(propyl)amino)-4-(3-(p-tolyl)ureido)pyridin-2-yl)-N-(cyclopropylsulfonyl)benzamide]
11.9 | Cc1ccc(NC(=O)Nc2cc(-c3ccccc3-c3nnn[nH]3)nc(N(Cc3ccccc3)CC(C)C)c2)cc1 [Example 240, 1-(2-(2-(1H-tetrazol-5-yl)phenyl)-6-(benzyl(isobutyl)amino)pyridin-4-yl)-3-(p-tolyl)urea]
845 | CCCN(Cc1ccccc1)c1cc(NC(=O)Nc2cc(C)ccn2)cc(-c2ccccc2-c2nnn[nH]2)n1 [Example 299]
74 | Cc1ccc(C(=O)Nc2cc(-c3ccccc3-c3nnn[nH]3)nc(N(Cc3ccccc3)CC(C)C)n2)c(F)c1 [Example 9, N-(6-(2-(1H-tetrazol-5-yl)phenyl)-2-(benzyl(isobutyl)amino)pyrimidin-4-yl)-2-fluoro-4-methylbenzamide]
205 | CCCN(Cc1ccccc1)c1cc(NC(=O)Nc2ccccc2C(F)(F)F)cc(-c2ccccc2-c2nnn[nH]2)n1 [Example 36, 1-(2-(2-(1H-tetrazol-5-yl)phenyl)-6-(benzyl(propyl)amino)pyridin-4-yl)-3-(2-(trifluoromethyl)phenyl)urea]
2330 | CCN(Cc1ccccc1)c1cc(NC(=O)Cc2ccc(C)nc2)cc(-c2ccccc2-c2nnn[nH]2)n1 [Example 285]
32.4 | Cc1ccc(CC(=O)Nc2cc(-c3ccccc3-c3nnn[nH]3)nc(N(Cc3ccccc3)CC3CC3)n2)cc1 [Example 22, N-(6-(2-(1H-tetrazol-5-yl)phenyl)-2-(benzyl(cyclopropylmethyl)amino)pyrimidin-4-yl)-2-(p-tolyl)acetamide]
16.5 | CC(C)CN(Cc1ccccc1)c1cc(Nc2ccc(Cl)cc2Cl)cc(-c2ccccc2-c2nnn[nH]2)n1 [Example 174, 6-(2-(1H-tetrazol-5-yl)phenyl)-N2-benzyl-N4-(2,4-dichlorophenyl)-N2-isobutylpyridine-2,4-diamine]
206 | Cc1nccnc1Nc1cc(-c2ccccc2-c2nnn[nH]2)nc(N(Cc2ccccc2)CC(C)C)c1 [Example 167, 6-(2-(1H-tetrazol-5-yl)phenyl)-N2-benzyl-N2-isobutyl-N4-(3-methylpyrazin-2-yl)pyridine-2,4-diamine]
105 | CCCN(Cc1ccccc1)c1cc(NC(=O)Nc2ccccc2F)cc(-c2ccccc2-c2nnn[nH]2)n1 [Example 262, 1-(2-(2-(1H-tetrazol-5-yl)phenyl)-6-(benzyl(propyl)amino)pyridin-4-yl)-3-(2-fluorophenyl)urea]
14.4 | COc1cnc(Nc2cc(-c3ccccc3-c3nnn[nH]3)nc(N(Cc3ccccc3)CC(C)C)c2)nc1 [Example 172, 6-(2-(1H-tetrazol-5-yl)phenyl)-N2-benzyl-N2-isobutyl-N4-(5-methoxypyrimidin-2-yl)pyridine-2,4-diamine]
323 | CCCN(Cc1ccccc1)c1cc(NC(=O)Cc2cccs2)cc(-c2ccccc2-c2nn[nH]n2)n1 [Example 206, N-(2-(2-(2H-tetrazol-5-yl)phenyl)-6-(benzyl(propyl)amino)pyridin-4-yl)-2-(thiophen-2-yl)acetamide]
19.8 | CC(C)CN(Cc1ccccc1)c1cc(Nc2cccc(C#N)c2)cc(-c2ccccc2-c2nnn[nH]2)n1 [Example 192, 3-((2-(2-(1H-tetrazol-5-yl)phenyl)-6-(benzyl(isobutyl)amino)pyridin-4-yl)amino)benzonitrile]
1370 | CCCN(Cc1ccccc1)c1cc(NC(=O)Cc2ccc(C)nc2)cc(-c2ccccc2-c2nnn[nH]2)n1 [Example 293]
230 | CC(C)CN(Cc1ccccc1)c1cc(Nc2ccccc2C#N)cc(-c2ccccc2-c2nnn[nH]2)n1 [Example 194, 2-((2-(2-(1H-tetrazol-5-yl)phenyl)-6-(benzyl(isobutyl)amino)pyridin-4-yl)amino)benzonitrile]
75.6 | CC(C)CN(Cc1ccccc1)c1cc(Nc2ncc(C(F)(F)F)cn2)cc(-c2ccccc2-c2nnn[nH]2)n1 [Example 74, 6-(2-(1H-tetrazol-5-yl)phenyl)-N2-benzyl-N2-isobutyl-N4-(5-(trifluoromethyl)pyrimidin-2-yl)pyridine-2,4-diamine, TFA]
18.3 | Cc1ccc(CC(=O)Nc2cc(-c3ccccc3-c3nnn[nH]3)nc(N(Cc3ccccc3)CC(C)C)c2)c(F)c1 [Example 79, N-(2-(2-(1H-tetrazol-5-yl)phenyl)-6-(benzyl(isobutyl)amino)pyridin-4-yl)-2-(2-fluoro-4-methylphenyl)acetamide, TFA]
202 | CCCN(Cc1ccccc1)c1cc(NC(=O)Cc2ccccc2F)cc(-c2ccccc2-c2nn[nH]n2)n1 [Example 202, N-(2-(2-(2H-tetrazol-5-yl)phenyl)-6-(benzyl(propyl)amino)pyridin-4-yl)-2-(2-fluorophenyl)acetamide]
4 | CC(C)CN(Cc1ccccc1)c1cc(Nc2ccc3c(c2)OCO3)cc(-c2ccccc2-c2nnn[nH]2)n1 [Example 57, 6-(2-(1H-tetrazol-5-yl)phenyl)-N4-(benzo[d][1,3]dioxol-5-yl)-N2-benzyl-N2-isobutylpyridine-2,4-diamine]
324 | Cc1ccc(CC(=O)Nc2cc(-c3ccccc3-c3nnn[nH]3)nc(N3CCCc4ccccc43)c2)cc1 [Example 68, N-(2-(2-(1H-tetrazol-5-yl)phenyl)-6-(3,4-dihydroquinolin-1(2H)-yl)pyridin-4-yl)-2-(p-tolyl)acetamide, TFA]

— US12059420B2 (BRISTOL-MYERS SQUIBB COMPANY, priority 2018, dated 2024)
